Measurements published in patent US6613747B2, “6-O-carbamoyl ketolide antibacterials” (Ortho-McNeil Pharmaceutical, Inc., priority 2000, dated 2003).
≈ marks a conversion by molar mass, not a printed value. Read-outs that look alike come from different tables or passages of the source.

Legend:
Test in all cases: MIC, microdilution broth method (NCCLS)
Format in all cases: cell-based
[1] = system: S. pneumoniae ATCC49619; conditions: D: S. pneumoniae ATCC49619, 35° C., 16-20 hours
Procedure: (§1) Minimal inhibitory concentration (MIC) has been an indicator of in vitro antibacterial activity widely used in the art. The in vitro antimicrobial activity of the compounds was determined by the microdilution broth method following the test method from the National Committee for Clinical Laboratory Standards (NCCLS). This method is described in the NCCLS Document M7-A4, Vol. 17, No. 2, “Methods for Dilution Antimicrobial Susceptibility Test for Bacteria that Grow Aerobically—Fourth Edition”, which is incorporated herein by reference.
(§2) In this method two-fold serial dilutions of drug in cation adjusted Mueller-Hinton broth are added to wells in microdilution trays. The test organisms are prepared by adjusting the turbidity of actively growing broth cultures so that the final concentration of test organism after it is added to the wells is approximately 5×10^4 CFU/well.
(§3) Following inoculation of the microdilution trays, the trays are incubated at 35° C. for 16-20 hours and then read. […] The amount of growth in the wells containing the test compound is compared with the amount of growth in the growth-control wells (no test compound) used in each tray. As set forth in Table 1, compounds of the present invention were tested against a variety of Gram positive and Gram negative pathogenic bacteria resulting in a range of activities depending on the organism tested.

[2] = system: E. coli OC2605; conditions: A: E. coli OC2605, 35° C., 16-20 hours
Procedure: as §1, §2, §3

[3] = system: E. faecalis ATCC29212; conditions: C: E. faecalis ATCC29212, 35° C., 16-20 hours
Procedure: as §1, §2, §3

[4] = system: S. aureus ATCC29213; conditions: B: S. aureus ATCC29213, 35° C., 16-20 hours
Procedure: as §1, §2, §3

[5] = system: H. influenzae ATCC49247; conditions: E: H. influenzae ATCC49247, 35° C., 16-20 hours
Procedure: as §1, §2, §3

[6] = Escherichia coli, read-out: MIC
[7] = Enterococcus faecalis, read-out: MIC
[8] = Staphylococcus aureus, read-out: MIC

Row | SMILES | MIC [1] | MIC [2] | MIC [3] | MIC [4] | MIC [5] | MIC ([1]; Streptococcus pneumoniae, read-out: MIC) | MIC [2, 6] | MIC [3, 7] | MIC [4, 8] | MIC ([5]; Haemophilus influenzae, read-out: MIC)
1 | CC[C@H]1OC(=O)[C@H](C)C(=O)[C@H](C)[C@@H](O[C@@H]2O[C@H](C)C[C@H](N(C)C)[C@H]2O)[C@](C)(OC(=O)NCc2ccccc2)C[C@@H](C)C(=O)[C@H](C)[C@H]2NC(=O)O[C@@]21C [Compound 1] | 0.03 µg/mL (≈ 0.041 µM) | >16 µg/mL | 0.12 µg/mL (≈ 0.164 µM) | 4 µg/mL (≈ 5.47 µM) |  |  |  |  |  | 
2 | CC[C@H]1OC(=O)[C@H](C)C(=O)[C@H](C)[C@@H](O[C@@H]2O[C@H](C)C[C@H](N(C)C)[C@H]2O)[C@](C)(OC(=O)NCCCc2ccccc2)C[C@@H](C)C(=O)[C@H](C)[C@H]2NC(=O)O[C@@]21C [Compound 2] | 0.06 µg/mL (≈ 0.079 µM) | 16 µg/mL (≈ 21.1 µM) | 0.25 µg/mL (≈ 0.329 µM) | 1 µg/mL (≈ 1.32 µM) | 2 µg/mL (≈ 2.63 µM) |  |  |  |  | 
3 | CC[C@H]1OC(=O)[C@H](C)C(=O)[C@H](C)[C@@H](O[C@@H]2O[C@H](C)C[C@H](N(C)C)[C@H]2O)[C@](C)(OC(=O)NCCc2ccccc2)C[C@@H](C)C(=O)[C@H](C)[C@H]2NC(=O)O[C@@]21C [Compound 3] | 0.12 µg/mL (≈ 0.161 µM) | >16 µg/mL | 1 µg/mL (≈ 1.34 µM) | 4 µg/mL (≈ 5.36 µM) | 8 µg/mL (≈ 10.7 µM) |  |  |  |  | 
4 | CC[C@H]1OC(=O)[C@H](C)C(=O)[C@H](C)[C@@H](O[C@@H]2O[C@H](C)C[C@H](N(C)C)[C@H]2O)[C@](C)(OC(=O)NC/C=C/c2ccccc2)C[C@@H](C)C(=O)[C@H](C)[C@H]2NC(=O)O[C@@]21C [Compound 4] | 0.03 µg/mL (≈ 0.0396 µM) | >16 µg/mL | 0.12 µg/mL (≈ 0.158 µM) | 0.25 µg/mL (≈ 0.33 µM) | 1 µg/mL (≈ 1.32 µM) |  |  |  |  | 
5 | CC[C@H]1OC(=O)[C@H](C)C(=O)[C@H](C)[C@@H](O[C@@H]2O[C@H](C)C[C@H](N(C)C)[C@H]2O)[C@](C)(OC(=O)NCc2ccc(Br)cc2)C[C@@H](C)C(=O)[C@H](C)[C@H]2NC(=O)O[C@@]21C [Compound 5] | 0.03 µg/mL (≈ 0.037 µM) | >16 µg/mL | 0.25 µg/mL (≈ 0.308 µM) | 0.5 µg/mL (≈ 0.617 µM) |  |  |  |  |  | 
6 | CC[C@H]1OC(=O)[C@H](C)C(=O)[C@H](C)[C@@H](O[C@@H]2O[C@H](C)C[C@H](N(C)C)[C@H]2O)[C@](C)(OC(N)=O)C[C@@H](C)C(=O)[C@H](C)[C@H]2NC(=O)O[C@@]21C [Compound 6] | 0.12 µg/mL (≈ 0.187 µM) | >16 µg/mL | 1 µg/mL (≈ 1.56 µM) | 4 µg/mL (≈ 6.23 µM) |  |  |  |  |  | 
7 | CC[C@H]1OC(=O)[C@H](C)C(=O)[C@H](C)[C@@H](O[C@@H]2O[C@H](C)C[C@H](N(C)C)[C@H]2O)[C@](C)(OC(=O)NC/C=C/c2ccc(-n3ccnn3)cc2)C[C@@H](C)C(=O)[C@H](C)[C@H]2NC(=O)O[C@@]21C [Compound 33] | ≦0.015 μg/mL | 8 µg/mL (≈ 9.7 µM) | 0.06 µg/mL (≈ 0.0727 µM) | 0.12 µg/mL (≈ 0.145 µM) |  |  |  |  |  | 
8 | CC[C@H]1OC(=O)[C@H](C)C(=O)[C@H](C)[C@@H](O[C@@H]2O[C@H](C)C[C@H](N(C)C)[C@H]2O)[C@](C)(OC(=O)NC/C=C/c2cccc(-c3ccccn3)c2)C[C@@H](C)C(=O)[C@H](C)[C@H]2NC(=O)O[C@@]21C [Compound 36] | ≦0.015 μg/mL | 8 µg/mL (≈ 9.58 µM) | 0.03 µg/mL (≈ 0.0359 µM) | 0.12 µg/mL (≈ 0.144 µM) |  |  |  |  |  | 
9 | CC[C@H]1OC(=O)[C@H](C)C(=O)[C@H](C)[C@@H](O[C@@H]2O[C@H](C)C[C@H](N(C)C)[C@H]2O)[C@](C)(OC(=O)NC/C=C/c2ccc(-n3cnnc3)cc2)C[C@@H](C)C(=O)[C@H](C)[C@H]2NC(=O)O[C@@]21C [Compound 40] | 0.12 µg/mL (≈ 0.145 µM) | 16 µg/mL (≈ 19.4 µM) | 0.5 µg/mL (≈ 0.606 µM) | 1 µg/mL (≈ 1.21 µM) |  |  |  |  |  | 
10 | CC[C@H]1OC(=O)[C@H](C)C(=O)[C@H](C)[C@@H](O[C@@H]2O[C@H](C)C[C@H](N(C)C)[C@H]2O)[C@](C)(OC(=O)NC/C=C/c2cccc3cccnc23)C[C@@H](C)C(=O)[C@H](C)[C@H]2NC(=O)O[C@@]21C [Compound 46] |  | 16 µg/mL (≈ 19.8 µM) | 0.06 µg/mL (≈ 0.0742 µM) | 0.25 µg/mL (≈ 0.309 µM) | 2 µg/mL (≈ 2.47 µM) |  |  |  |  | 
11 | CC[C@H]1OC(=O)[C@H](C)C(=O)[C@H](C)[C@@H](O[C@@H]2O[C@H](C)C[C@H](N(C)C)[C@H]2O)[C@](C)(OC(=O)NC/C=C/c2ccc3cccnc3c2)C[C@@H](C)C(=O)[C@H](C)[C@H]2NC(=O)O[C@@]21C [Compound 47] |  | 16 µg/mL (≈ 19.8 µM) | 0.06 µg/mL (≈ 0.0742 µM) | 0.25 µg/mL (≈ 0.309 µM) | 1 µg/mL (≈ 1.24 µM) |  |  |  |  | 
12 | CC[C@H]1OC(=O)[C@H](C)[C@@H](O)[C@H](C)[C@@H](O[C@@H]2O[C@H](C)C[C@H](N(C)C)[C@H]2O)[C@](C)(OC(=O)NC/C=C/c2ccc(-c3ncccn3)cc2)C[C@@H](C)C(=O)[C@H](C)[C@H]2NC(=O)O[C@@]21C [Compound 95] |  |  |  |  |  |  | > 16 µg/mL | 0.25 µg/mL (≈ 0.298 µM) | 1 µg/mL (≈ 1.19 µM) | 2 µg/mL (≈ 2.39 µM)
13 | CCC1OC(=O)C(C)(F)C(=O)C(C)C(OC2OC(C)CC(N(C)C)C2O)C(C)(OC(=O)NCC=Cc2ccc(-c3cccnn3)cc2)CC(C)C(=O)C(C)C2NC(=O)OC12C (stereo not shown) [Compound 99] |  | 8 µg/mL (≈ 9.37 µM) | 0.12 µg/mL (≈ 0.141 µM) | 0.5 µg/mL (≈ 0.585 µM) | 1 µg/mL (≈ 1.17 µM) |  |  |  |  | 
14 | CCC1OC(=O)C(C)(F)C(=O)C(C)C(OC2OC(C)CC(N(C)C)C2O)C(C)(OC(=O)NCC=Cc2ccc(-c3ccncn3)cc2)CC(C)C(=O)C(C)C2NC(=O)OC12C (stereo not shown) [Compound 100] |  | 16 µg/mL (≈ 18.7 µM) | 0.12 µg/mL (≈ 0.141 µM) | 0.5 µg/mL (≈ 0.585 µM) | 2 µg/mL (≈ 2.34 µM) |  |  |  |  | 

Continued, values first:

Row | MIC [1] | MIC [2] | MIC [3] | MIC [4] | MIC [5] | MIC ([1]; Streptococcus pneumoniae, read-out: MIC) | MIC [2, 6] | MIC [3, 7] | MIC [4, 8] | MIC ([5]; Haemophilus influenzae, read-out: MIC) | SMILES
15 | 0.03 µg/mL (≈ 0.0376 µM) | 16 µg/mL (≈ 20.1 µM) | 0.06 µg/mL (≈ 0.0752 µM) | 0.5 µg/mL (≈ 0.627 µM) | 4 µg/mL (≈ 5.01 µM) |  |  |  |  |  | CC[C@H]1OC(=O)[C@H](C)C(=O)[C@H](C)[C@@H](O[C@@H]2O[C@H](C)C[C@H](N(C)C)[C@H]2O)[C@](C)(OC(=O)NCc2ccc(-n3cccn3)cc2)C[C@@H](C)C(=O)[C@H](C)[C@H]2NC(=O)O[C@@]21C [Compound 7]
16 |  |  |  |  |  | 0.06 µg/mL (≈ 0.0718 µM) | 16 µg/mL (≈ 19.1 µM) | 0.06 µg/mL (≈ 0.0718 µM) | 0.12 µg/mL (≈ 0.144 µM) |  | CC[C@H]1OC(=O)[C@H](C)C(=O)[C@H](C)[C@@H](O[C@@H]2O[C@H](C)C[C@H](N(C)C)[C@H]2O)[C@](C)(OC(=O)NC/C=C/c2ccc(-c3ncccn3)cc2)C[C@@H](C)C(=O)[C@H](C)[C@H]2NC(=O)O[C@@]21C [Compound 32, Carbamic acid, [(2E)-3-[4-(2-pyrimidinyl)phenyl]-2-propenyl]-, (3aS,4R,7R,9R,10R,11R,13R,15R,15aR)-4-ethyltetradecahydro-3a,7,9,11,13,15-hexamethyl-2,6,8,14-tetraoxo-10-[[3,4,6-trideoxy-3-(dimethylamino)-β-D-xylo-hexopyranosyl]oxy]-2H-oxacyclotetradecino[4,3-d]oxazol-11-yl ester]
17 | ≦0.015 μg/mL | 8 µg/mL (≈ 9.89 µM) | 0.06 µg/mL (≈ 0.0742 µM) | 0.12 µg/mL (≈ 0.148 µM) |  |  |  |  |  |  | CC[C@H]1OC(=O)[C@H](C)C(=O)[C@H](C)[C@@H](O[C@@H]2O[C@H](C)C[C@H](N(C)C)[C@H]2O)[C@](C)(OC(=O)NC/C=C/c2ccnc3ccccc23)C[C@@H](C)C(=O)[C@H](C)[C@H]2NC(=O)O[C@@]21C [Compound 34]
18 | 0.03 µg/mL (≈ 0.0371 µM) | 16 µg/mL (≈ 19.8 µM) | 0.12 µg/mL (≈ 0.148 µM) | 0.5 µg/mL (≈ 0.618 µM) |  |  |  |  |  |  | CC[C@H]1OC(=O)[C@H](C)C(=O)[C@H](C)[C@@H](O[C@@H]2O[C@H](C)C[C@H](N(C)C)[C@H]2O)[C@](C)(OC(=O)NCc2cccc(-c3ccccn3)c2)C[C@@H](C)C(=O)[C@H](C)[C@H]2NC(=O)O[C@@]21C [Compound 37]
19 | ≦0.015 μg/mL | 8 µg/mL (≈ 9.89 µM) | 0.03 µg/mL (≈ 0.0371 µM) | 0.12 µg/mL (≈ 0.148 µM) |  |  |  |  |  |  | CC[C@H]1OC(=O)[C@H](C)C(=O)[C@H](C)[C@@H](O[C@@H]2O[C@H](C)C[C@H](N(C)C)[C@H]2O)[C@](C)(OC(=O)NC/C=C/c2ccc3ncccc3c2)C[C@@H](C)C(=O)[C@H](C)[C@H]2NC(=O)O[C@@]21C [Compound 38]
20 |  | >16 µg/mL | 0.12 µg/mL (≈ 0.145 µM) | 0.5 µg/mL (≈ 0.606 µM) | 4 µg/mL (≈ 4.85 µM) |  |  |  |  |  | CC[C@H]1OC(=O)[C@H](C)C(=O)[C@H](C)[C@@H](O[C@@H]2O[C@H](C)C[C@H](N(C)C)[C@H]2O)[C@](C)(OC(=O)NC/C=C/c2cccc(-n3cccn3)n2)C[C@@H](C)C(=O)[C@H](C)[C@H]2NC(=O)O[C@@]21C [Compound 48]
21 | 2 µg/mL (≈ 2.35 µM) | >16 µg/mL | 4 µg/mL (≈ 4.71 µM) |  | >16 µg/mL |  |  |  |  |  | CC[C@H]1OC(=O)[C@H](C)C(=O)[C@H](C)[C@@H](O[C@@H]2O[C@H](C)C[C@H](N(C)C)[C@H]2O)[C@](C)(OC(=O)NC2CC(c3ccc(-c4ncccn4)cc3)C2)C[C@@H](C)C(=O)[C@H](C)[C@H]2NC(=O)O[C@@]21C (stereo partly shown) [Compound 136]
